Converted amounts (≈) assume the structure as drawn.
Key:
[1] = system: Staphylococcus aureus MRQR (methicillin resistant quinoione resistant); experiment: MIC by agar-dilution, in-vitro antibacterial test; format: cell-based; conditions: type MRQR, 10^4 CFU/spot, 37° C., 24 hours
Method: (§1) The following results were obtained on a standard in-vitro test system. The activity is described in terms of the minimum inhibitory concentration (MIC) determined by the agar-dilution technique with an inoculum size of 10^4 CFU/spot.
(§2) Staphylococci were tested on agar, using an inoculum of 10^4 CFU/spot and an incubation temperature of 37° C. for 24 hours—standard test conditions for the expression of methicillin resistance.

[2] = system: Staphylococcus aureus Novb. Res. (Novobiocin resistant); experiment: MIC by agar-dilution, in-vitro antibacterial test; format: cell-based; conditions: type Novb. Res. (Novobiocin resistant), 10^4 CFU/spot, 37° C., 24 hours
Method: as §1, §2

[3] = system: Staphylococcus aureus Oxford; experiment: MIC by agar-dilution, in-vitro antibacterial test; format: cell-based; conditions: type Oxford, 10^4 CFU/spot, 37° C., 24 hours
Method: as §1, §2

[4] = system: Coagulase Negative Staphylococci MS (methicillin sensitive); experiment: MIC by agar-dilution, in-vitro antibacterial test; format: cell-based; conditions: type MS (methicillin sensitive), 10^4 CFU/spot, 37° C., 24 hours
Method: as §1, §2

[5] = system: Coagulase Negative Staphylococci MR (methicillin resistant); experiment: MIC by agar-dilution, in-vitro antibacterial test; format: cell-based; conditions: type MR (methicillin resistant), 10^4 CFU/spot, 37° C., 24 hours
Method: as §1, §2

[6] = system: Streptococcus pyogenes C203; experiment: MIC by agar-dilution, in-vitro antibacterial test; format: cell-based; conditions: agar with 5% defibrinated horse blood, 10^4 CFU/spot, 37° C., 5% carbon dioxide, 48 hours
Method: (§3) The following results were obtained on a standard in-vitro test system. The activity is described in terms of the minimum inhibitory concentration (MIC) determined by the agar-dilution technique with an inoculum size of 10^4 CFU/spot. Streptococci and enterococci were tested on agar supplemented with 5% defibrinated horse blood, an inoculum of 10^4 CFU/spot and an incubation temperature of 37° C. in an atmosphere of 5% carbon dioxide for 48 hours—blood is required for the growth of some of the test organisms.

Enterococcus faecalis = experiment: MIC by agar-dilution, in-vitro antibacterial test; format: cell-based; conditions: agar with 5% defibrinated horse blood, 10^4 CFU/spot, 37° C., 5% carbon dioxide, 48 hours
Method: as §3

Bacillus subtilis = experiment: MIC by agar-dilution, in-vitro antibacterial test; format: cell-based; conditions: 10^4 CFU/spot
Text: as §1

Compound `CC(=O)NC[C@H]1CN(c2ccc(C(=O)c3ccc4ccc(C)cn34)cc2)C(=O)O1` [Example 2, N-([(5S)-N-(4-[6-methylindolizin-3-ylcarbonyl]phenyl)-2-oxooxazolidin-5-yl]methyl)acetamide] has a melting point of 237 to 239 °C.

Work on `CC(=O)NC[C@H]1CN(c2ccc(C(=O)c3ccc4cnc(C)cn34)cc2)C(=O)O1` [Example 4, N-([(5S)-N-(4-[3-methylpyrrolo[1,2-a]pyrazin-6-ylcarbonyl]phenyl)-2-oxooxazolidin-5-yl]methyl)acetamide] yielded a melting point of 248 to 250 °C.

Work on `CC(=O)NC[C@H]1CN(c2ccc(C(=O)c3cnc4ccccn34)cc2)C(=O)O1` [Example 5, N-([(5S)-N-(4-[imidazo[1,2-a]pyridin-3-ylcarbonyl]phenyl)-2-oxooxazolidin-5-yl]methyl)acetamide] yielded a melting point of 218 to 220 °C.

For `CC(=O)NC[C@H]1CN(c2ccc(C(=O)c3cnc4ncccn34)cc2)C(=O)O1` [Example 6, N-([(5S)-N-(4-[imidazo[1,2-a]pyrimidin-3-ylcarbonyl]phenyl)-2-oxooxazolidin-5-yl]methyl)acetamide], the melting point was 257 to 260 °C.

For `CC(=O)NC[C@H]1CN(c2ccc(C(=O)c3cnc4nc(C)cc(C)n34)cc2)C(=O)O1` [Example 7, N-([(5S)-N-(4-[5,7-dimethylimidazo[1,2-a]pyrimidin-3-ylcarbonyl]phenyl)-2-oxooxazolidin-5-yl]methyl)acetamide], the melting point was 253 to 254 °C.

Work on `CC(=O)NC[C@H]1CN(c2ccc(C(=O)c3cnc4ccc(Br)cn34)cc2)C(=O)O1` [Example 8, N-([(5S)-N-(4-[6-bromoimidazo[1,2-a]pyridin-3-ylcarbonyl]phenyl)-2-oxooxazolidin-5-yl]methyl)acetamide] yielded a melting point of 230 to 232 °C.

`CC(=O)NC[C@H]1CN(c2ccc(C(=O)c3cnc4c5ccccc5ccn34)cc2)C(=O)O1` [Example 9, N-([(5S)-N-(4-[imidazo[2,1-a]isoquinol-3-ylcarbonyl]phenyl)-2-oxooxazolidin-5-yl]methyl)acetamide] gave a melting point of 239 to 240 °C.

Work on `CC(=O)NC[C@H]1CN(c2ccc(C(=O)c3cnc4sccn34)cc2)C(=O)O1` [Example 10, N-([(5S)-N-(4[imidazo[2,1-b]thiazol-5-ylcarbonyl]phenyl)-2-oxooxazolidin-5-yl]methyl)acetamide] yielded an MIC [1] of 0.5 µg/mL (≈ 1.3 µM), an MIC [2] of 0.13 µg/mL (≈ 0.338 µM) and an MIC [3] of 0.13 µg/mL (≈ 0.338 µM). It also gave an MIC [4] of 0.06 µg/mL (≈ 0.156 µM), an MIC [5] of 0.13 µg/mL (≈ 0.338 µM) and an MIC [6] of 0.03 µg/mL (≈ 0.078 µM). The MIC (Enterococcus faecalis) was 0.25 µg/mL (≈ 0.65 µM) and the MIC (Bacillus subtilis) was 0.125 µg/mL (≈ 0.325 µM).

`CC(=O)NC[C@H]1CN(c2ccc(C(=O)c3cnc4c(Cl)cc(Cl)cn34)cc2)C(=O)O1` [Example 11, N-([(5S)-N-(4-[6,8-dichloroimidazo[1,2-a]pyridin-3-ylcarbonyl]phenyl)-2-oxooxazolidin-5-yl]methyl)acetamide] gave a melting point of 228 to 229 °C.

With `CC(=O)NC[C@H]1CN(c2ccc(C(=O)c3cc(C#N)c4ccccn34)cc2)C(=O)O1` [Example 12, N-([(5S)-N-(4-[1-cyanoindolizin-3-ylcarbonyl]phenyl)-2oxooxazolidin-5-yl]methyl)acetamide] the melting point was 255 to 257 °C.

`CC(=O)NC[C@H]1CN(c2ccc(C(=O)c3cnc4cc(C)ccn34)cc2)C(=O)O1` [Example 13, N-([(5S)-N-(4-[7-methylimidazo[1,2-a]pyridin-3-ylcarbonyl]phenyl)-2-oxooxazolidin-5-yl]methyl)acetamide] showed a melting point of 254 to 256 °C.

`CC(=O)NC[C@H]1CN(c2ccc(C(=O)c3cnc4ccc(Cl)cn34)cc2)C(=O)O1` [Example 14, N-([(5S)-N-(4-[6-chloroimidazo[1,2-a]pyridin-3-ylcarbonyl]phenyl)-2-oxooxazolidin-5-yl]methyl)acetamide] showed a melting point of 234 to 235 °C.

`CC(=O)NC[C@H]1CN(c2ccc(C(=O)c3cnc4ccc([N+](=O)[O-])cn34)cc2)C(=O)O1` [Example 15, N-([(5S)-N-(4-[6-nitroimidazo[1,2-a]pyridin-3-ylcarbonyl]phenyl)-2-oxooxazolidin-5-yl]methyl)acetamide] showed a melting point of 223 to 225 °C.

`CC(=O)NC[C@H]1CN(c2ccc(C(=O)c3cnc4c([N+](=O)[O-])cccn34)cc2)C(=O)O1` [Example 16, N-([(5S)-N-(4-[8-nitroimidazo[1,2-a]pyridin-3-ylcarbonyl]phenyl)-2-oxooxazolidin-5-yl]methyl)acetamide] showed a melting point of 229 to 230 °C.

`CC(=O)NC[C@H]1CN(c2ccc(C(=O)c3cnc4c(Br)cc(C)cn34)cc2)C(=O)O1` [Example 19, N-([(5S)-N-(4-[8-bromo-6-methylimidazo[1,2-a]pyridin-3-ylcarbonyl]phenyl)2-oxooxazolidin-5-yl]methyl)acetamide] gave a melting point of 221 to 223 °C.

Compound `CC(=O)NC[C@H]1CN(c2ccc(C(=O)c3cnc4c(OCc5ccccc5)cccn34)cc2)C(=O)O1` [Example 20, N-([(5S)-N-(4-[8-benzyloxyimidazo[1,2-a]pyridin-3-ylcarbonyl]phenyl)-2-oxooxazolidin-5-yl]methyl)acetamide] has a melting point of 193 to 195 °C.

For `CC(=O)NC[C@H]1CN(c2ccc(C(=O)c3cnc4ccccn34)c(F)c2)C(=O)O1` [Example 22, N-([(5S)-N-(4[imidazo[1,2-a]pyridin-3-ylcarbonyl]{3-fluorophenyl})-2-oxooxazolidin-5-yl]methyl)acetamide], the melting point was 196 to 198 °C.

Work on `COC(=O)c1cccn2c(C(=O)c3ccc(N4C[C@H](CNC(C)=O)OC4=O)cc3)cnc12` [Example 23, N-([(5S)-N-(4-[8-methoxycarbonylimidazo[1,2-a]pyridin-3-ylcarbonyl]phenyl)-2-oxooxazolidin-5-yl]methyl)acetamide] yielded a melting point of 202 to 204 °C.

`COC(=O)c1ccc2ncc(C(=O)c3ccc(N4C[C@H](CNC(C)=O)OC4=O)cc3)n2c1` [Example 24, N-([(5S)-N-(4-[6-methoxycarbonylimidazo[1,2-a]pyridin-3-ylcarbonyl]phenyl)-2-oxooxazolidin-5-yl]methyl)acetamide] showed a melting point of 231 to 233 °C.

In the case of `CC(=O)NC[C@H]1CN(c2ccc(C(=O)c3cnc4cc(-c5ccccc5)ccn34)cc2)C(=O)O1` [Example 25, N-([(5S)-N-(4-[7-phenylimidazo[1,2-a]pyridin-3-ylcarbonyl]phenyl)-2-oxooxazolidin-5-yl]methyl)acetamide], the melting point is reported as 256 to 258 °C.

In the case of `CC(=O)NC[C@H]1CN(c2ccc(C(=O)c3cnc4c(O)cccn34)cc2)C(=O)O1` [Example 26, N-([(5S)-N-(4-[8-hydroxyimidazo[1,2-a]pyridin-3-ylcarbonyl]phenyl)-2-oxooxazolidin-5-yl]methyl)acetamide], the melting point is reported as 253 to 255 °C (dec.).

Compound `CC(=O)NC[C@H]1CN(c2ccc(C(=O)c3cnc4ccc(F)cn34)cc2)C(=O)O1` [Example 27, N-([(5S)-N-(4-[6-fluoroimidazo[1,2-a]pyridin-3-ylcarbonyl]phenyl)-2-oxooxazolidin-5-yl]methyl)acetamide] has a melting point of 224 to 226 °C.

`CC(=O)NC[C@H]1CN(c2ccc(C(=O)c3cnc4cnc(Br)cn34)cc2)C(=O)O1` [Example 43, N-([(5S)-N-(4-[6-bromoimidazo[1,2-a]pyrazin-3-ylcarbonyl]phenyl)-2-oxooxazolidin-5-yl]methyl)acetamide] showed a melting point of 216 to 220 °C.

In the case of `CC(=O)NC[C@H]1CN(c2ccc(C(=O)c3cnc4ccc(Cl)nn34)cc2)C(=O)O1` [Example 44, N-([(5S)-N-(4-[6-chloroimidazo[1,2-b]pyridazin-3-ylcarbonyl]phenyl)-2-oxooxazolidin-5-yl]methyl)acetamide], the melting point is reported as 194 to 196 °C.

`CC(=O)NC[C@H]1CN(c2ccc(C(=O)c3cnc4cnccn34)cc2)C(=O)O1` [Example 45, N-([(5S)-N-(4-[imidazo[1,2-a]pyrazin-3-ylcarbonyl]phenyl)-2-oxooxazolidin-5-yl]methyl)acetamide] gave a melting point of 254 to 256 °C.

Compound `CC(=O)NC[C@H]1CN(c2ccc(C(=O)c3ccc[nH]3)cc2)C(=O)O1` [Example 47, N-([(5S)-N-(4-[pyrrol-2-ylcarbonyl]phenyl)-2-oxooxazolidin-5-yl]methyl)acetamide] has a melting point of 202 to 205 °C.

Source: US6362191B1, “Aminometyl oxooxazolidinyl benzene derivatives” (Zeneca Ltd., priority 1997, dated 2002)
